Key:
A2780 ®/A2780 = experiment: Resistance factor A2780 ®/A2780; type: cell-based, human; conditions: ratio of IC50 resistant to nonresistant line, ovarian
Method: (§1) Additional in vitro biological testing was conducted using cell lines derived from human carcinomas and maintained at the Institute of Cancer Research, Sutton, England (see C A Hills & colleagues, Br J Cancer 59, 527-34 (1989)). Monolayer cells were trypsinized and seeded in 96-well microtiter plates at a density of 1×10^4 cells/well in 200 μl of growth medium. Cells were incubated overnight and test compounds were added to triplicate wells at various concentrations for a total of 48 to 96 hours. For toxicity analysis after drug exposure, the cells were fixed with trichloroacetic acid and stained for cellular protein content by incubation for 30 minutes with 0.4% (wt/vol) sulforodamine B (SRB) dissolved in 1% acetic acid. The unbound dye was removed by 1% acetic acid washes, and the bound dye was extracted with 10 mM Tris buffer. The amount of dye in solution was quantified by absorbance at 564 nm.
(§2) In the Tables A and B below, all the cells are ovarian cancer cells with the exception of GCT27^R /GCT27 which are testicular. Table A gives IC50 values in μM; Table B gives Resistance Factors as a ratio of IC50 for a cell line bred to be resistant to cisplatin against IC50 for the nonresistant cell line.

A2780 ® = experiment: In vitro cytotoxicity (SRB), A2780 ®; type: cell-based, human; conditions: A2780 ® (cisplatin resistant), ovarian cancer, 48 to 96 hours
Method: as §1, §2

41M = experiment: In vitro cytotoxicity (SRB), 41M; type: cell-based, human; conditions: ovarian cancer, 48 to 96 hours
Method: as §1, §2

A2780 = experiment: In vitro cytotoxicity (SRB), A2780; type: cell-based, human; conditions: A2780, ovarian cancer, 48 to 96 hours
Method: as §1, §2

CHI = experiment: In vitro cytotoxicity (SRB), CHI; type: cell-based, human; conditions: ovarian cancer, 48 to 96 hours
Method: as §1, §2

HX62 = experiment: In vitro cytotoxicity (SRB), HX62; type: cell-based, human; conditions: HX62, ovarian cancer, 48 to 96 hours
Method: as §1, §2

CHI ® = experiment: In vitro cytotoxicity (SRB), CHI ®; type: cell-based, human; conditions: CHI ® (cisplatin resistant), ovarian cancer, 48 to 96 hours
Method: as §1, §2

41M ®/41M = experiment: Resistance factor 41M ®/41M; type: cell-based, human; conditions: ratio of IC50 resistant to nonresistant line, ovarian
Method: as §1, §2

CHI ®/CHI = experiment: Resistance factor CHI ®/CHI; type: cell-based, human; conditions: ratio of IC50 resistant to nonresistant line, ovarian
Method: as §1, §2

SKOV-3 = experiment: In vitro cytotoxicity (SRB), SKOV-3; type: cell-based, human; conditions: SKOV-3, ovarian cancer, 48 to 96 hours
Method: as §1, §2

41M ® = experiment: In vitro cytotoxicity (SRB), 41M ®; type: cell-based, human; conditions: 41M ® (cisplatin resistant), ovarian cancer, 48 to 96 hours
Method: as §1, §2

GCT27 ®/GCT27 = experiment: Resistance factor GCT27 ®/GCT27; type: cell-based, human; conditions: ratio of IC50 resistant to nonresistant line, testicular
Method: as §1, §2

Adj/PC6 = experiment: In vivo Adj/PC6 tumour test in mice (LD50, ED90, therapeutic index)
Method: The Adj/PC6 testing was carried out as described by P M Goddard et al presented in Sixth NCI-EORTC Symposium on New Drugs in Cancer Therapy 1989, which is a development of the basic method described by T A Connors et al, Chem Biol Interact 5, 415(1972). The in vivo L1210 tests were conducted according to the NCI protocol, Cancer Chemotherapy Reports, Part 3, vol 2, (Sept 1972) except that the animals used were DBA/2 mice and that dosing was carried out on days 1, 5 and 9. The animals were sacrificed when moribund. The compounds were administered parenterally (ip).
In the Adj/PC6 testing, LD50 and ED90 values in mg/kg body weight were determined in the conventional manner. The therapeutic index (TI) was calculated as the ratio of LD50 to ED90, and the results are shown below.
Additional tests were carried out in vivo using the compound of Example 2, against sensitive Adj/PC6 tumour cell lines, and against tumour cell lines resistant to various platinum anti-tumour agents, and a TI (Therapeutic Index) calculated, as described above.

PXN/94 = experiment: In vitro cytotoxicity (SRB), PXN/94; type: cell-based, human; conditions: PXN/94, ovarian cancer, 48 to 96 hours
Method: as §1, §2

OVCAR-3 [1] = experiment: In vivo OVCAR-3 ovarian carcinoma xenograft; parameters: species or system mice; conditions: delay in doubling of tumour volume vs control
Method: The "growth delay" was also measured which represents the delay in achieving a doubling of the tumour volume for the treated group compared to the control group.

OVCAR-3 [2] = experiment: In vivo OVCAR-3 ovarian carcinoma xenograft; parameters: species or system mice; conditions: tumour volume vs control
Adj/PC6/cisplatin res = experiment: In vivo Adj/PC6 cisplatin-resistant tumour test in mice; parameters: key to ED90: --: indicates 90% inhibition not achieved for doses up to LD50
Method: (§3) The animals were sacrificed when moribund. The compounds were administered parenterally (ip).

Adj/PC6/iproplatin res = experiment: In vivo Adj/PC6 iproplatin-resistant tumour test in mice; parameters: key to ED90: --: indicates 90% inhibition not achieved for doses up to LD50
Method: as §3

Adj/PC6/tetraplatin res = experiment: In vivo Adj/PC6 tetraplatin-resistant tumour test in mice
Method: as §3

[3] = Adj/PC6, comparison with cis-isomer

Compound	Resistance Factor A2780 ®/A2780 (A2780 ®/A2780)	IC50 (A2780 ®) [µM]	IC50 (41M) [µM]	IC50 (A2780) [µM]	IC50 (CHI) [µM]	IC50 (HX62) [µM]	IC50 (CHI ®) [µM]	Resistance Factor 41M ®/41M (41M ®/41M)	Resistance Factor CHI ®/CHI (CHI ®/CHI)	IC50 (SKOV-3) [µM]	IC50 (41M ®) [µM]	ED90 (Adj/PC6; Adj/PC6 testing, mice, ip) [mg/kg body weight]	LD50 (Adj/PC6; Adj/PC6 testing, mice, ip) [mg/kg body weight]	TI (therapeutic index, ratio of LD50 to ED90) (Adj/PC6; Adj/PC6 testing, mice, ip)	IC50 (PXN/94) [µM]	other results
[NH2][Pt]([OH])([OH])([Cl])([Cl])[NH]Cc1ccccc1 [B, t[PtCl2 (OH2)NH3 (PhCH2 NH2)]]	4.0	4.2	1.3	1.06	1.12	10.2	1.95	1.0	1.7	8.2	1.35					
N.N.[Cl][Pt][Cl] [Cisplatin, cis-[PtCl2 (NH3)2], reference compound]	15.7							4.7	6.4							Resistance Factor GCT27 ®/GCT27 (GCT27 ®/GCT27): 6.2
[NH2][Pt]([OH])([OH])([Cl])([Cl])[NH]C1CCCC1 [EX 1, trans-[PtCl2 (OH)2 (NH3)(c-C5 H9 NH2)]]	5.5	5.2	1.1	0.95	1.15	10.2	1.9	1.2	1.7	7	1.3					
CC(C)[NH][Pt]([NH2])([OH])([OH])([Cl])[Cl] [EX 3, trans-[PtCl2 (OH)2 (NH3)((CH3)2 CHNH2)]]			3.2		2.4	14	5.5	1.4	2.3	9.2	4.6	10.5	18	1.7	8.3	
CC(C)(C)[NH][Pt]([NH2])([OH])([OH])([Cl])[Cl] [EX 4, trans-[PtCl2 (OH)2 NH3 (t-C4 H9 NH2)]]			1.1		0.74	1.8	1.6	0.8	2.2	4.7	0.9	4.7	35	7.4	3	
C[NH][Pt]([NH2])([OH])([OH])([Cl])[Cl] [EX 6, trans-[PtCl2 (OH)2 NH3 (MeNH2)]]	10.3	64	5.4	6.2	12.5	110	30.5	6.1	2.4	72	33					
[NH2][Pt]([OH])([OH])([Cl])([Cl])[N]1CCOCC1 [EX 7, trans-[PtCl2 (OH)2 NH3 (morpholine)]]		47	26	10.9	17.3	100	28.3	2.1	1.6	47	54	94	82	< 1	50	
CC[N](CC)[Pt]([NH2])([OH])([OH])([Cl])[Cl] [EX 10, t-[PtCl2 (OH)2 NH3 (Et2 NH)]]		11.6	1.8	1.9	3.3	3.2	4.6			12.1	0.8					
C1CN2CCC1CC2.[NH2][Pt]([OH])([OH])([Cl])[Cl] [EX 11, t-[PtCl2 (OH)2 NH3 (quinuclidine)]]		16	14.4	3.2	10.2	40	14.3			27	9.5					
ctc[PtCl2 (OH) NH3(c-C6 H11 NH2)] [Cis-isomer, reference compound]																Growth Delay (OVCAR-3 [1]; 2 mg/kg): 4.3 days; Growth Delay (OVCAR-3 [1]; 4 mg/kg): 15.2 days; Growth Delay (OVCAR-3 [1]; 8 mg/kg): 5.5 days; ED90 (Adj/PC6; [3]): 1.4 mg/kg; LD50 (Adj/PC6; [3]): 17.5 mg/kg; TI (Therapeutic Index) (Adj/PC6; [3]): 13; T/C (day 28) (OVCAR-3 [2]; 2 mg/kg): 0.636; T/C (day 28) (OVCAR-3 [2]; 4 mg/kg): 0.427; T/C (day 28) (OVCAR-3 [2]; 8 mg/kg): 0.599; ED90 (Adj/PC6/cisplatin res): --; LD50 (Adj/PC6/cisplatin res): 8.8 mg/kg; ED90 (Adj/PC6/iproplatin res): --; LD50 (Adj/PC6/iproplatin res): 8.8 mg/kg; ED90 (Adj/PC6/tetraplatin res): 12 mg/kg; LD50 (Adj/PC6/tetraplatin res): > 12.5 mg/kg; TI (Therapeutic Index) (Adj/PC6/tetraplatin res): > 1
t-[PtCl2 (OH)2 NH3 (exo-2-aminonorbornane)]			1.4		1.4	5.6	1.7	1.0	1.2	4.4	1.47	< 6.25	15.5	> 2.5	3.2	
trans-[PtCl2 (OH)2 NH3 (C10 H21 NH2)] [EX 8]		14.1	12	2.9	14	23	14.6			25	5.3					
